What was measured:
[1] = target: Serine/threonine-protein kinase B-raf [V600E] (Homo sapiens, UniProt P15056, V600E); test: Not found
[2] = target: RAF proto-oncogene serine/threonine-protein kinase [Y340D,Y341D] (Homo sapiens, UniProt P04049, Y340D/Y341D); test: Not found
Excerpt: Not found

Serine/threonine-protein kinase B-raf [V600E], sequence (P15056 2-766 V600E limits assumed): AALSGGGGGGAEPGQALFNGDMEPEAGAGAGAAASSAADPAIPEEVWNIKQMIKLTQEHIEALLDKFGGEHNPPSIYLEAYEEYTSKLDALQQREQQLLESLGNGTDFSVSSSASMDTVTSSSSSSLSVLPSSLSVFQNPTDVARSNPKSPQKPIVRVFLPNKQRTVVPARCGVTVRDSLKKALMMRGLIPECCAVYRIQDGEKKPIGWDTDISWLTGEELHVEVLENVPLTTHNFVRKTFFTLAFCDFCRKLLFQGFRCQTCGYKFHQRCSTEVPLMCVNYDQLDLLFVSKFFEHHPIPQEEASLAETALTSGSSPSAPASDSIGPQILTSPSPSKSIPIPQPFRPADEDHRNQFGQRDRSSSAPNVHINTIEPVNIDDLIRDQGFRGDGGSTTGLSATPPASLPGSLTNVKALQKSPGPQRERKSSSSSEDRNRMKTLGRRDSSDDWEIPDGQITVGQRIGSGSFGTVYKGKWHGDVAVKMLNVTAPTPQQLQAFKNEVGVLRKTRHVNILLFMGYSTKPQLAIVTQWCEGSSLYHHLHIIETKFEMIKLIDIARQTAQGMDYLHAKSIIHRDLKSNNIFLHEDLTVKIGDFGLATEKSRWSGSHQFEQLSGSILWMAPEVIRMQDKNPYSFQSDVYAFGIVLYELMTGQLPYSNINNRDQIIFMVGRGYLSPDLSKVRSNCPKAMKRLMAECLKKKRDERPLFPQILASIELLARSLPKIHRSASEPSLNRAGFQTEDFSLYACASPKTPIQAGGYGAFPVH
RAF proto-oncogene serine/threonine-protein kinase [Y340D,Y341D], sequence (P04049 whole entry Y340D/Y341D): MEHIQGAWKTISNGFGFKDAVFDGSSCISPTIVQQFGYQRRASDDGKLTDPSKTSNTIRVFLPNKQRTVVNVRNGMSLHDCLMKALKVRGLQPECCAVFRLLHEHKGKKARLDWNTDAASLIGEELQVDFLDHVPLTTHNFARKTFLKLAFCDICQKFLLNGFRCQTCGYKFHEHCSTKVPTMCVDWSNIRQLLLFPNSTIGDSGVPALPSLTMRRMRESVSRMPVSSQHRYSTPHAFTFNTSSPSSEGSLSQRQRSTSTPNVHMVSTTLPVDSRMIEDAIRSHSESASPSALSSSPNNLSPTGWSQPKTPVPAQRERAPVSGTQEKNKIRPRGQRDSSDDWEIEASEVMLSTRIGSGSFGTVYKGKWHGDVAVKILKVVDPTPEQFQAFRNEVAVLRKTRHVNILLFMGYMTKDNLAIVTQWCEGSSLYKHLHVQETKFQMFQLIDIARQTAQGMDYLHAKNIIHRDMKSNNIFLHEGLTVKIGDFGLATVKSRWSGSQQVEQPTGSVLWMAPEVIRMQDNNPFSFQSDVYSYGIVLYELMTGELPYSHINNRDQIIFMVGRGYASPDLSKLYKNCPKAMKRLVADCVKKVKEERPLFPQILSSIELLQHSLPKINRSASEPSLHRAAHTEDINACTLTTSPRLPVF

Row | IC50 [1] [nM] | IC50 [2] [nM] | SMILES
1 | 10.4 | – | O=C1CCc2c(Oc3ccc4c(c3)[C@H]3[C@H](NC(=O)c5ccc(CN6CCN(CCO)CC6)c(C(F)(F)F)c5)[C@H]3O4)ccnc2N1 [US9670231, 1.17]
2 | 11 | – | CN1CCN(Cc2ccc(C(=O)N[C@@H]3[C@H]4Oc5ccc(Oc6ccnc7c6COC(=O)N7)cc5[C@@H]34)cc2C(F)(F)F)CC1 [US9670231, 2.2]
3 | – | 6.2 | O=C1CCc2c(Oc3ccc4c(c3)[C@H]3[C@H](NC(=O)c5ccc(CN6CCC[C@H](O)C6)c(C(F)(F)F)c5)[C@H]3O4)ccnc2N1 [US9670231, 1.15]
4 | 17 | – | CN(C)[C@H]1CCN(Cc2ccc(C(=O)N[C@@H]3[C@H]4Oc5ccc(Oc6ccnc7c6CCC(=O)N7)cc5[C@@H]34)cc2C(F)(F)F)C1 [US9670231, 1.9]
5 | 14 | 2.5 | CN1CCN(CCOc2ccc(C(=O)N[C@@H]3[C@H]4Oc5ccc(Oc6ccnc7c6CCC(=O)N7)cc5[C@@H]34)cc2C(F)(F)F)CC1 [US9670231, 1.52]
6 | 14 | – | CN(C)[C@@H]1CCN(Cc2ccc(C(=O)N[C@@H]3[C@H]4Oc5ccc(Oc6ccnc7c6CCC(=O)N7)cc5[C@@H]34)cc2C(F)(F)F)C1 [US9670231, 1.10]
7 | 11 | 2.1 | CN(C)C1CCN(Cc2ccc(C(=O)N[C@@H]3[C@H]4Oc5ccc(Oc6ccnc7c6CCC(=O)N7)cc5[C@@H]34)cc2C(F)(F)F)CC1 [US9670231, 1.20]
